Measurements taken from patent publication US20230141603A1, “BENZODIAZEPINE DERIVATIVES AS GABA A GAMMA1 PAM” (Hoffmann-La Roche Inc., priority 2021, published 2023).

Legend:
[1] = target: T1, h-GABAA α2β2γ1 (Homo sapiens, UniProt P47869+Q8N1C3); assay: Two-electrode voltage clamp electrophysiology in Xenopus oocytes, modulation of GABA EC20 current; assay type: cell-based; set-up: host or cells: Xenopus laevis oocytes, RNA micro-injection; settings: Table 2; for Efficacy (GABA)%: % modulation of GABA EC20 = 100*(Fold increase−1), compound at approx. 30-fold Ki; for Fold increase h-GABA-A α2β2γ1 oocyte @ 30-fold Ki: compound at approx. 30-fold its Ki α2β2γ1, GABA EC20, Xenopus oocytes
T1 sequence (P47869 29-451): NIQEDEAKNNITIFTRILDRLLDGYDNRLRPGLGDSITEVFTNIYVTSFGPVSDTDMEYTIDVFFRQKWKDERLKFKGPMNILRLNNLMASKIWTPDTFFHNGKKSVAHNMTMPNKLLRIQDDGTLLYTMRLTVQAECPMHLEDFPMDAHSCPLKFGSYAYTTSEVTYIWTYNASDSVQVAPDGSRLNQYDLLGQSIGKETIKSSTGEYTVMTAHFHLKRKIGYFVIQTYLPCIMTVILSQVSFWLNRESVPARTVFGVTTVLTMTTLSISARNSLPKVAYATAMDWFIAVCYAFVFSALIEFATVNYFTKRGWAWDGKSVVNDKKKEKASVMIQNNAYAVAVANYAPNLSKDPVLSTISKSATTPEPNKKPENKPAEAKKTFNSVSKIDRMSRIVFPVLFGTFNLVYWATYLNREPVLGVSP
T1 sequence (P47870 25-512 partner limits assumed): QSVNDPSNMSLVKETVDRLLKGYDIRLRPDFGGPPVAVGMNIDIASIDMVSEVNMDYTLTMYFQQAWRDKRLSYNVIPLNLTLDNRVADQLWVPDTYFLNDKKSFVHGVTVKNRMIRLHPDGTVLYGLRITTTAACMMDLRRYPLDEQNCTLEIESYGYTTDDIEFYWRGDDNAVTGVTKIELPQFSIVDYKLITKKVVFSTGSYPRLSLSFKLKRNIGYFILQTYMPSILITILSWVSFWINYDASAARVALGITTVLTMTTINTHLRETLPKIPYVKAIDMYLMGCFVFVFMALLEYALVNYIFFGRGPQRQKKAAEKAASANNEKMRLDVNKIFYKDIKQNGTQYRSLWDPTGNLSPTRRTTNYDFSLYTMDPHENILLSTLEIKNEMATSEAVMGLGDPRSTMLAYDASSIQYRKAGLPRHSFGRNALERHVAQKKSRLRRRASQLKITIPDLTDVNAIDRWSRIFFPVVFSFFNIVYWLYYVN
T1 sequence (Q8N1C3 36-465): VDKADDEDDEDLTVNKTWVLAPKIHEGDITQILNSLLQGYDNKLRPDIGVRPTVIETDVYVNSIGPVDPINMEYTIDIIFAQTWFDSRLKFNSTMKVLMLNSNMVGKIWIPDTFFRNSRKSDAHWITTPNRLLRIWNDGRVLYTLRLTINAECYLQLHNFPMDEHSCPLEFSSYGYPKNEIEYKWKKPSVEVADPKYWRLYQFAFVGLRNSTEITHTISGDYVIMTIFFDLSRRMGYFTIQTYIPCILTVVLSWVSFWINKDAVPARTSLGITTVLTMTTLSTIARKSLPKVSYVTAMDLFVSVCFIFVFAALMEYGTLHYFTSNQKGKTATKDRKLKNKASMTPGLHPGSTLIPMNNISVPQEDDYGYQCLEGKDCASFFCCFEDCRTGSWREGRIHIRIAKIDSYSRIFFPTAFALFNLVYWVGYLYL
Experimental: Xenopus laevis oocytes at maturation stages V-VJ were used for the expression of cloned mRNA encoding GABAA receptor subunits. Oocytes ready for RNA micro-injection were bought from Ecocyte, Castrop-Rauxel, Germany and stored in modified Barth's medium (composition in mM: NaCl 88, KCl 1, NaHCO3 2.4, HEPES 10, MgSO4 0.82, CaNO3 0.33, CaCl2 0.33, pH=7.5) at 20° C. until the experiment.
Oocytes were plated in 96-well plates for microinjection using the Roboinject automated instrument (MultiChannelSystems, Reutlingen, Germany). Approximately 50 nL of an aqueous solution containing the RNA transcripts for the subunits of the desired GABAA receptor subtype was injected into each oocyte. […] Oocytes were kept in modified Barth's medium (composition in mM: NaCl 88, KCl 1, NaHCO3 […], HEPES 10, MgSO4 0.82, CaNO3 0.33, CaCl2 0.33, pH=7.5) at 20° C. until the experiment.
Electrophysiological experiments were performed using the Roboocyte instrument (MultiChannelSystems, Reutlingen, Germany) on days 3 to 5 after the micro-injection of mRNA. During the experiment the oocytes were constantly superfused by a solution containing (in mM) NaCl 90, KCl 1, HEPES 5, MgCl2 1, CaCl2 1 (pH 7.4). Oocytes were impaled by two glass microelectrodes (resistance: 0.5-0.8 MΩ) which were filled with a solution containing KCl 1M+K-acetate 1.5 M and voltage-clamped to −80 mV. The recordings were performed at room temperature using the Roboocyte two-electrode voltage clamp system (Multichannelsystem). After an initial equilibration period of 1.5 min GABA was added for 1.5 min at a concentration evoking approximately 20% of a maximal current response (EC20). After another rest interval of 2.5 min GABA was again added evoking a response of similar amplitude and shape. […] Current traces were recorded at a digitization rate of 10 Hz during and shortly before and after the GABA application.
Each compound and concentration was tested on at least 3 oocytes. Different oocytes were used for different compound concentrations.
For the analysis, the digitized current traces of the first and second GABA response were superimposed and, if necessary, rescaled to equal maximal amplitudes. The ratio between the two responses during the time interval of test compound application was calculated point by point. The extremum of the resulting “ratio trace” was taken as the efficacy (“Fold increase”) of the compound expressed as “% modulation of GABA EC20” (100*(Fold increase−1)).

[2] = target: T2, h-GABAA α1β3γ2 (Homo sapiens, UniProt P14867+P18507); assay: Radioligand binding assay, [3H]Flumazenil competition, HEK293F membranes; settings: for γ2/γ1 Selectivity Ratio: Ki α1β3γ2 (nM)/Ki α2β2γ1 (nM); for LogSel: Log[Ki α1β3γ2 (nM)/Ki α2β2γ1 (nM)]
T2 construct: expressed in transfected cells; host or cells: HEK293F cells, membranes
Experimental: The affinity of compounds at GABAA γ2 subunit-containing receptors was measured by competition for [^3H]Flumazenil (81.1 Ci/mmol; Roche) binding to HEK293F cells expressing human (transiently transfected) receptors of composition α1β3γ2.
Harvested pellets from HEK293F cells expressing the different GABAA γ2 receptor subtypes were resuspended in Mannitol Buffer pH 7.2-7.4 and processed as described above for the cells expressing the GABAA γ1 subunit-containing receptors.
Assays were incubated to equilibrium for 1 hour at 4° C. and harvested onto GF/C uni-filters (Packard) by filtration using a Packard harvester and washing with ice-cold wash buffer (50 mM Tris; pH 7.5). After drying, filter-retained radioactivity was detected by liquid scintillation counting. Ki values were calculated using Excel-Fit (Microsoft) and are the means of two determinations.

SMILES | Efficacy (GABA)% [1] [%] | Fold increase h-GABA-A α2β2γ1 oocyte @ 30-fold Ki [1] | Ki [2] [nM] | γ2/γ1 Selectivity Ratio ([2]; Table 1) | LogSel ([2]; Table 1) | γ2/γ1 Selectivity Ratio ([2]; Table 3) | LogSel ([2]; Table 3)
Cc1nnc2n1-c1ccc(Br)c(Cl)c1C(c1c(F)cccc1F)=NC2 [Example 1, 8-bromo-7-chloro-6-(2,6-difluorophenyl)-1-methyl-4H-[1,2,4]triazolo[4,3-a][1,4]benzodiazepine] | 77 | 1.77 | 146 | 18.3 | 1.26 | 18.3 | 1.3
Fc1ccccc1C1=NCc2nnc(C3CC3)n2-c2ccc(Br)c(Cl)c21 [Example 2, 8-bromo-7-chloro-1-cyclopropyl-6-(2-fluorophenyl)-4H-[1,2,4]triazolo[4,3-a][1,4]benzodiazepine] | 84 | 1.84 | 486 | 10.1 | 1.01 |  | 
Fc1ccccc1C1=NCc2nnc(-c3cccnn3)n2-c2ccc(Br)c(Cl)c21 [Example 3, 8-bromo-7-chloro-6-(2-fluorophenyl)-1-pyridazin-3-yl-4H-[1,2,4]triazolo[4,3-a][1,4]benzodiazepine] | 113 | 2.13 | 453 | 51.2 | 1.71 |  | 
Cc1nnc2n1-c1ccc(Cl)c(Cl)c1C(c1ccccc1F)=NC2 [Example 4, 7,8-dichloro-6-(2-fluorophenyl)-1-methyl-4H-[1,2,4]triazolo[4,3-a][1,4]benzodiazepine] | 73 | 1.73 | 795 | 12.1 | 1.08 |  | 
Cc1nnc2n1-c1ccc(Cl)c(Cl)c1C(c1c(F)cccc1F)=NC2 [Example 5, 7,8-dichloro-6-(2,6-difluorophenyl)-1-methyl-4H-[1,2,4]triazolo[4,3-a][1,4]benzodiazepine] | 57 | 1.57 | 137 | 20.8 | 1.32 |  | 
Cc1nnc2n1-c1ccc(C3CC3)c(Cl)c1C(c1c(F)cccc1F)=NC2 [Example 6, 7-chloro-8-cyclopropyl-6-(2,6-difluorophenyl)-1-methyl-4H-[1,2,4]triazolo[4,3-a][1,4]benzodiazepine] | 106 | 2.06 | 965 | 10.3 | 1.01 |  | 
Fc1cccc(F)c1C1=NCc2nncn2-c2ccc(Br)c(Cl)c21 [Example 7, 8-bromo-7-chloro-6-(2,6-difluorophenyl)-4H-[1,2,4]triazolo[4,3-a][1,4]benzodiazepine] | 56 | 1.56 | 205 | 24.2 | 1.38 |  | 
Fc1ccccc1C1=NCc2nncn2-c2ccc(Br)c(Cl)c21 [Example 8, 8-bromo-7-chloro-6-(2-fluorophenyl)-4H-[1,2,4]triazolo[4,3-a][1,4]benzodiazepine] | 58 | 1.58 | 576 | 12.1 | 1.08 |  | 
O=c1[nH]nc2n1-c1ccc(Cl)c(Cl)c1C(c1c(F)cccc1F)=NC2 [Example 9, 7,8-dichloro-6-(2,6-difluorophenyl)-2,4-dihydro-[1,2,4]triazolo[4,3-a][1,4]benzodiazepin-1-one] | 72 | 1.72 | 396 | 49.7 | 1.70 |  | 
Fc1ccccc1C1=NCc2nnc(-c3cccnn3)n2-c2ccc(Cl)c(Cl)c21 [Example 10, 7,8-dichloro-6-(2-fluorophenyl)-1-pyridazin-3-yl-4H-[1,2,4]triazolo[4,3-a][1,4]benzodiazepine] | 69 | 1.69 | 645 | 67.7 | 1.83 |  | 
Fc1cccc(F)c1C1=NCc2nnc(C3CCOCC3)n2-c2ccc(Cl)c(Cl)c21 [Example 11, 7,8-dichloro-6-(2,6-difluorophenyl)-1-tetrahydropyran-4-yl-4H-[1,2,4]triazolo[4,3-a][1,4]benzodiazepine] | 60 | 1.60 | 690 | 14.1 | 1.15 |  | 
Fc1cccc(F)c1C1=NCc2nnc(-c3ccncn3)n2-c2ccc(Cl)c(Cl)c21 [Example 12, 7,8-dichloro-6-(2,6-difluorophenyl)-1-pyrimidin-4-yl-4H-[1,2,4]triazolo[4,3-a][1,4]benzodiazepine] | 49 | 1.49 | 490 | 47.3 | 1.67 |  | 
O=c1[nH]nc2n1-c1ccc(Br)c(Cl)c1C(c1c(F)cccc1F)=NC2 [Example 13, 8-bromo-7-chloro-6-(2,6-difluorophenyl)-2,4-dihydro-[1,2,4]triazolo[4,3-a][1,4]benzodiazepin-1-one] | 52 | 1.52 | 331 | 53.5 | 1.73 |  | 
